How the values were obtained:
Type in all cases: in vivo
[1] = test system: substantia nigra CD11b; assay: Number of substantia nigra microglial cells with CD11b positive expression in MPTP Parkinson's disease model mouse (immunohistochemistry); conditions: for Positive cell number (microglial cells with CD11b positive expression): substantia nigra, MPTP Parkinson's disease model mouse, immunohistochemistry
Procedure: (§1) Neurotoxins can be used to establish PD animal models. Currently, 1-methyl-4-phenyl-1,2,3,6-tetrahydropyridine (MPTP) is the sole synthetic toxin which is recognized to induce PD symptoms in human and non-human primates and in mice. Using MPTP subacute modeling method, C57BL/6J male mice were intraperitoneally injected with MPTP 30 mg/kg, once a day for 5 consecutive days. The experiment animals were divided into blank control group, MPTP model group, and compound treatment group. For the […] compound treatment group, the compound was administrated by gavage for 21 consecutive days after the completion of modeling; for the MPTP model group, the normal saline was administrated by gavage for 21 consecutive days after the completion of modeling; and for the blank control group, the normal saline was first intraperitoneally injected for 5 days, and then administrated by gavage for 21 days.
(§2) Neuron-glial cell network homeostasis disorder is an important factor for the selective and progressive death of substantia nigra dopaminergic neurons in PD. In the neurotoxic effect of MPTP, the excessive activations of microglial cells and astrocytes produce a variety of inflammatory cytokines and reactive oxygen species (ROS). These inflammatory factors and ROS amplify their respective toxicities and mediate malignant feedback loop, causing a cascade inflammation response and aggravating the pathological process of PD. CD11b and GFAP are the marker proteins for activations of microglial cells and astrocytes, respectively. Therefore, the effect of the target compounds on the activations of the microglial cells and astrocytes in the substantia nigra, hippocampus, and midbrain areas of MPTP-induced PD mice can be investigated, to explore the mechanism of the anti-PD effect of the target compounds by inhibiting the neuroinflammation.
(§3) Half of experiment mice in each group were taken to separate the midbrain after perfusion and fixation. The tissue was trimmed, and the substantia nigra area was taken to prepare paraffin sections. The CD11b immunohistochemical staining was performed for the statistics of the change in the number of microglial cells with CD11b positive expression. The experiment included blank control group, MPTP model group, positive control group (caffeic acid phenethyl ester, CAPE), prototype control group (styryl sulfone compounds 3B, 3C, 3D, and 3G, whose structures are shown as above), and target compound group.

[2] = test system: hippocampus CD11b; assay: Number of hippocampus microglial cells with CD11b positive expression in MPTP Parkinson's disease model mouse (immunohistochemistry); conditions: for Positive cell number (microglial cells with CD11b positive expression): hippocampus, MPTP Parkinson's disease model mouse, immunohistochemistry
Procedure: as §1, §2
as §3, with “hippocampus” for “substantia nigra”

[3] = test system: substantia nigra p-α-s; assay: Substantia nigra p-α-s protein expression in MPTP Parkinson's disease model mouse (immunofluorescence); conditions: percentage of mean intensity of blank control group, gavage 21 days after MPTP modeling
Procedure: as §1
Alpha-synuclein is an “unfolded protein” in its natural state. It exists in a monomeric form, and participates in the physiological functions such as the release of neurotransmitters, the establishment of synaptic junctions, and the regulation of synaptic plasticity. Under pathological conditions, more than 90% of alpha-synuclein is phosphorylated at serine of position 129 and converted into phosphorylated alpha-synuclein (p-α-s), thereby forming Lewy bodies. The formation of Lewy bodies is one of the main pathological manifestations and pathological mechanisms for Parkinson's disease, and plays an important role in the formation and development of PD. The detection of the p-α-s expression in the midbrain and substantia nigra of PD model mice can evaluate the neuroprotective activity of the compound.
as §3, with “nigra-striatum” for “nigra”, “p-α-s immunofluorescence” for “CD11b immunohistochemical”, “performed” for “performed for the statistics of the change”, “brain sections” for “number”, “mice in each group. […]” for “microglial cells with CD11b positive expression.”

[4] = test system: substantia nigra GFAP; assay: Number of substantia nigra astrocytes with GFAP positive expression in MPTP Parkinson's disease model mouse (immunohistochemistry); conditions: for Positive cell number (astrocytes with GFAP positive expression): substantia nigra, MPTP Parkinson's disease model mouse, immunohistochemistry
Procedure: as §1, §2
as §3, with “GFAP” for “CD11b”, “astrocytes” for “microglial cells”

[5] = test system: substantia nigra TH; assay: Substantia nigra TH expression in MPTP Parkinson's disease model mouse (immunofluorescence); conditions: percentage of mean intensity of blank control group, gavage 21 days after MPTP modeling
Procedure: as §1
The main cause of PD lies in the pathological changes in the substantia nigra-striatum projection system of the brain and the progressive degeneration and loss of dopaminergic neurons. Tyrosine hydroxylase (TH) is the first enzyme in the biosynthesis of catecholamine neurotransmitters, as well as the first rate-limiting enzyme in the dopamine synthesis. It plays an important role in the synthesis and metabolism of the neurotransmitter DA. The TH in PD animal models and patients has a wide range of abnormal changes, from the gene expression to the enzyme protein content and enzyme activity. The detection of the TH expression in the midbrain and substantia nigra of PD model mice can be used to evaluate the neuroprotective activity of the compound.
as §3, with “nigra-striatum” for “nigra”, “TH immunofluorescence” for “CD11b immunohistochemical”, “performed” for “performed for the statistics of the change”, “brain sections” for “number”, “mice in each group. […]” for “microglial cells with CD11b positive expression.”

[6] = test system: substantia nigra pp38; assay: Substantia nigra pp38 protein expression in MPTP Parkinson's disease model mouse (immunofluorescence); conditions: percentage of mean intensity of blank control group, gavage 21 days after MPTP modeling
Procedure: as §1
The p38 mitogen-activated protein kinase (p38 MAPK) is expressed in both neurons and glial cells, and is the intersection point of neuron-glial cell network information regulations. The activation of p38 signaling pathway is an important initiator of neuronal degeneration, which continuously induces the apoptosis of dopaminergic neurons in multiple ways. It has become a research hotspot for the treatment of PD. Studies have shown that the protective mechanism of CAPE against the death of primary cultured cerebellar granule neurons induced by glutamate lies in inhibiting the activation of p38 phosphorylation and in turn inhibiting the activation of the caspase 3 apoptotic pathway to prevent neuronal apoptosis. Therefore, the MPTP-induced PD mouse model can be used to investigate the inhibitory effect of the target compounds on the activation of p38 phosphorylation on the overall animal level.
as §3, with “nigra-striatum” for “nigra”, “double immunofluorescence” for “CD11b immunohistochemical”, “staining for TH and phosphorylated p38” for “staining”, “performed to observe the coexpression of TH and phosphorylated p38,” for “performed”, “phosphorylated p38 protein” for “number of microglial cells with CD11b positive”

Row | Molecule | Positive cell number (microglial cells with CD11b positive expression) [1] | Positive cell number (microglial cells with CD11b positive expression) [2] | Expression (Immunofluorescence intensity %) [3] | Positive cell number (astrocytes with GFAP positive expression) [4] | Expression (Immunofluorescence intensity %) [5] | Expression (Immunofluorescence intensity %) [6] | number of substantia nigra microglial cells with CD11b positive expression compared with the styryl sulfone prototype compounds [1] | number of hippocampus microglial cells with CD11b positive expression compared with the styryl sulfone prototype compounds [2] | number of substantia nigra astrocytes with GFAP positive expression compared with the styryl sulfone prototype compounds [4]
1 | O=S(=O)(/C=C/c1ccc(O)c(O)c1)Cc1ccc(C(F)(F)F)cc1 [Compound 3B, (E)-4-{2-[(4-trifluoromethylphenyl)mesyl]ethenyl}benzene-1,2-diol, reference compound] | 44 ± 5 | 16 ± 2 | 236.55 ± 13.78% | 121 ± 10 | 83.18 ± 5.87% | 134.70 ± 31.07% |  |  | 
2 | CN(C)c1ccc(CC(=O)Oc2cc(/C=C/S(=O)(=O)C(Br)c3ccc(Cc4ccc(N(C)C)cc4)cc3)ccc2OC(=O)N2CCCC2C(F)(F)F)cc1 (stereo not drawn) [Compound M1-5] | 28 ± 3 | 11 ± 1 | 67.90 ± 3.29% | 81 ± 4 | 87.24 ± 2.97% | 87.45 ± 11.05% |  |  | 
3 | CCN(C)C(=O)Oc1ccc(/C=C/S(=O)(=O)CC(c2ccc(-c3ccc(OC)c(OC)c3)cc2)[N+](=O)[O-])cc1OC(=O)N(C)CC (stereo not drawn) [Compound M1-1, (E)-4-{2-[2-(3′,4′-dimethoxy-[1,1′-biphenyl]-4-yl)-2-nitroethylsulfonyl]ethenyl}-1,2-phenylenebis(N-ethyl-N-methylcarbamate)] | 20 ± 3 | 5 ± 1 | 95.64 ± 9.25% | 59 ± 3 | 101.36 ± 5.21% | 98.35 ± 6.93% |  |  | 
4 | CCN(CC)C(=O)Oc1ccc(/C=C/S(=O)(=O)Cc2ccc(C(C)(C)C)cc2)cc1OC(=O)N(CC)CC [Compound G1-1, (E)-4-{2-[(4-t-butylphenyl)mesyl]ethenyl}-1,2-phenylenebis(diethylcarbamate)] | 36 ± 3 | 6 ± 1 | 77.36 ± 9.15% | 76 ± 4 | 77.13 ± 7.40% | 82.16 ± 8.10% | significantly lower | significantly lower | significantly lower
5 | COc1cc(/C=C/S(=O)(=O)Cc2cc(OC)c(OC)c(OC)c2)ccc1OC(=O)N(c1ccccc1)c1ccccc1 [Compound K3-3, (E)-2-methoxy-4-{2-[(3,4,5-trimethoxyphenyl)mesyl]ethenyl}-phenyl-N,N-diphenylcarbamate] | 39 ± 3 | 18 ± 1 | 180.11 ± 13.51% | 96 ± 3 | 98.53 ± 3.08% | 111.17 ± 9.62% |  |  | 
6 | COc1ccc(CC(=O)Oc2ccc(C(N)CS(=O)(=O)/C=C/c3ccc(OC(C)(C)C)c(OC(=O)N(C)c4ccccc4)c3)cc2)cc1 (stereo not drawn) [Compound P1-3, (E)-4-{1-amino-2-[4-t-butoxy-3-(N-methyl-N-phenylcarbamoyloxy)styrylsulfonyl]ethyl}phenyl-2-(4-methoxyphenyl)acetate] | 31 ± 4 | 16 ± 2 | 48.33 ± 5.37% | 69 ± 5 | 79.20 ± 6.53% | 81.90 ± 9.52% |  |  | 
7 | CCN(CC)C(=O)Oc1ccc(/C=C/S(=O)(=O)Cc2ccc(Cl)cc2)cc1OC(=O)N(CC)CC [Compound D1-1, (E)-4-{2-[(4-chlorophenyl)mesyl]ethenyl}-1,2-phenylenebis(diethylcarbamate)] | 15 ± 3 | 7 ± 1 | 42.52 ± 5.43% | 64 ± 3 | 99.19 ± 3.67% | 57.50 ± 15.33% | significantly lower | significantly lower | significantly lower
8 | (E)-2-[(methylamino)methoxy]-4-{2-[1-(4′-nitro-[1,1′-biphenyl]-4-yl)ethylsulfonyl]ethenyl}phenylcarbamate [Compound M1-3] | 33 ± 5 | 12 ± 2 | 79.17 ± 5.10% | 110 ± 5 | 84.07 ± 3.19% | 100.22 ± 14.12% |  |  | 
